Results published in article PMC6199744, “Development of Chemical Proteomics for the Folateome and Analysis of the Kinetoplastid Folateome” (ACS Infectious Diseases, 2018).
Read-outs that look alike come from different tables or passages of the source.

Columns and labels:
Assay type in all cases: binding
[1] = target: T1, HeLa cell extract proteins (Homo sapiens, UniProt O95163)
T1 construct: endogenous in cells; host or cells: HeLa cell extract
T1 sequence (O95163 1-1332): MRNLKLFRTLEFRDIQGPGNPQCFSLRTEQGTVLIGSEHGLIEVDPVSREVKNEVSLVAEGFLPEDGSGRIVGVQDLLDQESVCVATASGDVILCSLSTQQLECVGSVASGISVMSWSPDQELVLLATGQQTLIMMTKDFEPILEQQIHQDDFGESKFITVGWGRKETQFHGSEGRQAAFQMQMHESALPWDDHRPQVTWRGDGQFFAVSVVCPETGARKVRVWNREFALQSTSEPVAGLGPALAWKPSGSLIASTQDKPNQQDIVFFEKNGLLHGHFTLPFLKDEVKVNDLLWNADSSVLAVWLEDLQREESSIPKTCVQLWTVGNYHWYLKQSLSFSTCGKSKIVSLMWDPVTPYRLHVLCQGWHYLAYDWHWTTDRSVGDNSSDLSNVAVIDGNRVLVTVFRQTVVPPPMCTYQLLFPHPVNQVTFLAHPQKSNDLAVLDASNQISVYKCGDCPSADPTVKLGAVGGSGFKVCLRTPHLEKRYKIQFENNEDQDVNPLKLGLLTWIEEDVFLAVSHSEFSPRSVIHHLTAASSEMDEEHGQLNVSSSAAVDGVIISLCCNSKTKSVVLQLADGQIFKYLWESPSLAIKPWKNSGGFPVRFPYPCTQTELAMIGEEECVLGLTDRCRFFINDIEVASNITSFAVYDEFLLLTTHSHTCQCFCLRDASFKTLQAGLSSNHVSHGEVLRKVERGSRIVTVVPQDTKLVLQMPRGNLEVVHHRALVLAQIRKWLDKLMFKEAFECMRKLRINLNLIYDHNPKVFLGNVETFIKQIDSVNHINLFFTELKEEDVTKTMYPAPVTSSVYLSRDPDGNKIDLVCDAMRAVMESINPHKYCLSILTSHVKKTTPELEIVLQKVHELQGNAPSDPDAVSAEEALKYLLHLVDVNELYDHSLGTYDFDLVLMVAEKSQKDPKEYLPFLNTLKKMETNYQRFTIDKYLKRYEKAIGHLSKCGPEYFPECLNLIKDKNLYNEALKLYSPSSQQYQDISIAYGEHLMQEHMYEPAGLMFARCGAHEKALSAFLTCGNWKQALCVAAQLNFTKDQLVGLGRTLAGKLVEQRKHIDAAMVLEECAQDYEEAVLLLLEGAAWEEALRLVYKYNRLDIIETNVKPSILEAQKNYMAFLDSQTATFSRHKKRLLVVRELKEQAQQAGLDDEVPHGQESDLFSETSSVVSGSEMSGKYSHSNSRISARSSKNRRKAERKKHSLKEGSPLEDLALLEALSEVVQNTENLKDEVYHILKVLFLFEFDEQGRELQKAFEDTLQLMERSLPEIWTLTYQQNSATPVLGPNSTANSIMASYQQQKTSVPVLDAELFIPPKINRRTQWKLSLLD

[2] = target: T2, HeLa cell extract proteins (Homo sapiens, UniProt P07237)
T2 construct: endogenous in cells; host or cells: HeLa cell extract
T2 sequence (P07237 18-508): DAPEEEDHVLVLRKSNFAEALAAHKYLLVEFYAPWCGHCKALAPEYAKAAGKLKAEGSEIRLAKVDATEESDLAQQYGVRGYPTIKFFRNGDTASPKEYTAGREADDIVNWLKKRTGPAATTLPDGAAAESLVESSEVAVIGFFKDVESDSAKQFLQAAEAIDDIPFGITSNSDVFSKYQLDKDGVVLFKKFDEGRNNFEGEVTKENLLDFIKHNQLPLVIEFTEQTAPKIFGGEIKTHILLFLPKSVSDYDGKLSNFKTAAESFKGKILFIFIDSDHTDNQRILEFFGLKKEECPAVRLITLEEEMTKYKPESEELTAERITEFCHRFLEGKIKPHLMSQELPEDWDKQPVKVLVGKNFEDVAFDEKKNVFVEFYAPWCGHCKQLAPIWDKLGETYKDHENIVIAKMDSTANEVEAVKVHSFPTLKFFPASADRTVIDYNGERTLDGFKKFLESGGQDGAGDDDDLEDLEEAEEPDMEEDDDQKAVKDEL

[3] = target: T3, HeLa cell extract proteins (Homo sapiens, UniProt P30040)
T3 construct: endogenous in cells; host or cells: HeLa cell extract

[4] = target: T4, HeLa cell extract proteins (Homo sapiens, UniProt Q96EY1)
T4 construct: endogenous in cells; host or cells: HeLa cell extract
T4 sequence (Q96EY1 1-480): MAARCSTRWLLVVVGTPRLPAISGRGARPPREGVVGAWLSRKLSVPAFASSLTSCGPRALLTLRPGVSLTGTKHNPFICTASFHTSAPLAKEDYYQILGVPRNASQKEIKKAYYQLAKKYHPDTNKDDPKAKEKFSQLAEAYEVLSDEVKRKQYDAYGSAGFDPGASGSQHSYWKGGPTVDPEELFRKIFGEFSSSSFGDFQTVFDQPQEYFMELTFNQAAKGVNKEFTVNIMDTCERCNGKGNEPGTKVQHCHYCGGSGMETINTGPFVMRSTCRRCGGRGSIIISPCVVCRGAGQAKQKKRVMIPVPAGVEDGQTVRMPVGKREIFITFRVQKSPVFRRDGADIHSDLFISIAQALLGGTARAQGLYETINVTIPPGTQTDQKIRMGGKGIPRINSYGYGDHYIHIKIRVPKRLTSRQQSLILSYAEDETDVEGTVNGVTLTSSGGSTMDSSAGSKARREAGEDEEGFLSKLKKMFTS

[5] = target: T5, HeLa cell extract proteins (Homo sapiens, UniProt Q9H3U1)
T5 construct: endogenous in cells; host or cells: HeLa cell extract
T5 sequence (Q9H3U1 1-944): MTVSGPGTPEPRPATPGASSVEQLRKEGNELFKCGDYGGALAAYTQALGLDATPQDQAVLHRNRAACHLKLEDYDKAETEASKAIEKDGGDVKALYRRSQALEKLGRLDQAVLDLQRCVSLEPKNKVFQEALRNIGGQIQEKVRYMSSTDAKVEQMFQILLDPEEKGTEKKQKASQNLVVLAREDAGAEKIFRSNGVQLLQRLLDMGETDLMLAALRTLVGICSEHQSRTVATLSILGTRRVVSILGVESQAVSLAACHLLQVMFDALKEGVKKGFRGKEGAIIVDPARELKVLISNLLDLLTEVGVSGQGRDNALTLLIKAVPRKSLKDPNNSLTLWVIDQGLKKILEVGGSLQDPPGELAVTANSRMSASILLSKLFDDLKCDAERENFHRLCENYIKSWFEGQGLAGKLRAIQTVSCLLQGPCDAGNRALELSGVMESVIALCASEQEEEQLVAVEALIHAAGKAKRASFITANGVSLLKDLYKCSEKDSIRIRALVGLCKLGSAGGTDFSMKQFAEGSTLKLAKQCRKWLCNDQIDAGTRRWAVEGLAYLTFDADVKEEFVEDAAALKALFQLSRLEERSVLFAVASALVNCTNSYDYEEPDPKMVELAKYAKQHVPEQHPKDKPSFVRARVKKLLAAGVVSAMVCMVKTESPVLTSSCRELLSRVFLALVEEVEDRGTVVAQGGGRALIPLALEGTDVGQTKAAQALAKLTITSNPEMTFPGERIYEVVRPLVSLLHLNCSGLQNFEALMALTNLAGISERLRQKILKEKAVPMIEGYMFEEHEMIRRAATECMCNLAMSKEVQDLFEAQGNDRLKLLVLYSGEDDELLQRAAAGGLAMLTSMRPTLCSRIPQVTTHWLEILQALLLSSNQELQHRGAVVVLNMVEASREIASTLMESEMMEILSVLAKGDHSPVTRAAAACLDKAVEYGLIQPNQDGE

[6] = target: T6, HeLa cell extract proteins (Homo sapiens, UniProt Q9P2K8)
T6 construct: endogenous in cells; host or cells: HeLa cell extract
T6 sequence (Q9P2K8 whole entry): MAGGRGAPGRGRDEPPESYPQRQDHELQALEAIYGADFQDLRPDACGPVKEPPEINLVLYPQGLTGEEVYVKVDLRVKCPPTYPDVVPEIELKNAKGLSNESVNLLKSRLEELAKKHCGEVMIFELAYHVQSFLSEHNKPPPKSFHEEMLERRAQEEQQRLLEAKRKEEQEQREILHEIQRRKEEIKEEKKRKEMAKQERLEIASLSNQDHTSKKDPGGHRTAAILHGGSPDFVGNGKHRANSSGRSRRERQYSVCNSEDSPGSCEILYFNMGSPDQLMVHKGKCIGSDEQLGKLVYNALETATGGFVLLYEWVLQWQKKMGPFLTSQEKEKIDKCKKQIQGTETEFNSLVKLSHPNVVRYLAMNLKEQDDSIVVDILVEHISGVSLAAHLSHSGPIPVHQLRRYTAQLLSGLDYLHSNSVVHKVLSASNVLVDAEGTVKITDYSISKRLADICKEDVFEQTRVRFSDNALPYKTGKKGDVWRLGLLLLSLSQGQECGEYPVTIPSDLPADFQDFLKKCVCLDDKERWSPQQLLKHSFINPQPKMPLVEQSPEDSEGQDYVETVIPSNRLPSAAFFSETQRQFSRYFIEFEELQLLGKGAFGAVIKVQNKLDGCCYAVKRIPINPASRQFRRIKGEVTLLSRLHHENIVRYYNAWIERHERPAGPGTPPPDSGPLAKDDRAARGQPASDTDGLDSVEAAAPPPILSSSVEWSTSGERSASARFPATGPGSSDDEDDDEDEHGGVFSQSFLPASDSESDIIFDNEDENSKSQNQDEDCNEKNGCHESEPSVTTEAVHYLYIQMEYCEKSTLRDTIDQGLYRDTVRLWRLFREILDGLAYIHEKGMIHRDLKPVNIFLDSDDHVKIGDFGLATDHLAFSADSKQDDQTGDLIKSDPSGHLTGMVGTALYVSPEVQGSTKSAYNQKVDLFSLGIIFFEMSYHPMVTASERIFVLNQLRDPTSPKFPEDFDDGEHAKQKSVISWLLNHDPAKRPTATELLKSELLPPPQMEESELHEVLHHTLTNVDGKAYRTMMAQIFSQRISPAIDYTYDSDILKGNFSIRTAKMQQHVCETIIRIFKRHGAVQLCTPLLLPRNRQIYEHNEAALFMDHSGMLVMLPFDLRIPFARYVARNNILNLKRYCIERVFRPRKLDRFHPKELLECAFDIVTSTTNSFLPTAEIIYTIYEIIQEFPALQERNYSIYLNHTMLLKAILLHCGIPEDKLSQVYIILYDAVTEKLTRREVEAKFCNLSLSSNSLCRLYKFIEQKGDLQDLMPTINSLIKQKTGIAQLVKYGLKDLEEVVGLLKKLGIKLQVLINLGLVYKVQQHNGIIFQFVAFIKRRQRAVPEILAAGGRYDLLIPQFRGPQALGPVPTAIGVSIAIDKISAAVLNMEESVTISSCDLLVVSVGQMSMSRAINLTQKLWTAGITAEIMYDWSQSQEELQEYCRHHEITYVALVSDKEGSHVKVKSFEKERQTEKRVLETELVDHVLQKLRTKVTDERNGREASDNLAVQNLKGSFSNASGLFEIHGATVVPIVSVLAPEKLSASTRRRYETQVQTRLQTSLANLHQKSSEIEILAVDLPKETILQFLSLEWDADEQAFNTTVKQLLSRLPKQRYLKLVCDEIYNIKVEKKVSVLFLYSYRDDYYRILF

Compound	fold changes relative to vehicle control ([1]; protein IKBKAP, HeLa)	fold changes relative to vehicle control ([2]; protein P4HB, HeLa)	fold changes relative to vehicle control ([3]; protein ERP29, HeLa)	fold changes relative to vehicle control ([4]; captured protein DNAJA3, HeLa)	fold changes relative to vehicle control ([5]; protein UNC45A, HeLa)	fold changes relative to vehicle control ([6]; captured protein EIF2AK4, HeLa)	fold changes relative to vehicle control ([1]; HeLa, captured protein IKBKAP)	fold changes relative to vehicle control ([2]; HeLa, protein P4HB)	fold changes relative to vehicle control ([4]; protein DNAJA3, HeLa)	fold changes relative to vehicle control ([5]; HeLa, protein UNC45A)	fold changes relative to vehicle control [6]	fold changes relative to vehicle control [1]	fold changes relative to vehicle control [2]	fold changes relative to vehicle control [3]	fold changes relative to vehicle control [4]	fold changes relative to vehicle control [5]	fold changes relative to vehicle control ([6]; HeLa, protein EIF2AK4 (ISOFORM 1 OF EUKARYOTIC TRANSLATION INITIATION FACTOR 2-ALPHA KINASE 4))
Nc1nc2cccc(-c3ccccc3)c2n1Cc1ccc(Cl)c(Cl)c1 [compound 3]	1.12	1	0.94	1.05	0.97	1.02											
CCCCCCOc1ccc(Cc2cnc(N)nc2N)cc1 [compound 1]	1.33	1.31	1.29	0.84	1.44	0.97											
NCCCNc1ccc(C(=O)NC(CCC(=O)O)C(=O)O)cc1 (stereo not drawn) [compound 7]			0.88				1.01	0.92	1.06	1.05	1.02						
CCCCCCOc1cccc(Cc2cnc(N)nc2N)c1 [compound 2]	1.3	1.79	1.77	1.16	1.53	0.96											
NCCOCCOCC(=O)Nc1nc2ncc(CNc3ccc(C(=O)NC(CCC(=O)O)C(=O)O)cc3)nc2c(=O)[nH]1 (stereo not drawn) [compound 6]			1.24				1.2	1.19	1.2	1.16	1.02						
Nc1nc2[nH]cc(CCc3ccc(C(=O)N[C@@H](CCC(=O)O)C(=O)O)cc3)c2c(=O)[nH]1 [PTX, pemetrexed]											0.65	1.11	1.03	0.96	0.84	0.99	
Nc1nc2c(c(=O)[nH]1)N(C=O)C(CNc1ccc(C(=O)N[C@@H](CCC(=O)O)C(=O)O)cc1)CN2 (stereo partly drawn) [LEU, leucovorin]			0.97				1.15	0.96	0.8	1.07							0.83
